Reference: patent US20200016136A1 (VIIV HEALTHCARE UK (NO. 5) LIMITED, priority 2017, published 2020)

These compounds were tested on NL-RLuc virus (recombinant NL4-3 HIV with Renilla Luciferase gene) (assay: Inhibition of HIV replication (NL-RLuc virus in MT-2 cells, luciferase readout)). Details: MT2, 120 h.
Type: cell-based, Human immunodeficiency virus (HIV)
Procedure, shortened: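 EC50 derived via median effect equation from at least 2 experiments, using luciferase expression as virus-growth readout. Replication-competent NL-RLuc reporter virus (nef partly replaced by Renilla luciferase) infected MT-2 cells with serial compound dilutions; 5-day incubation in RPMI 1640 plus 10% FBS.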

With `Cc1ncc(-c2ccc3c(c2)CCN(c2ncnc4c2oc2ccccc24)C3)c(N2CCC(C)(C)CC2)c1[C@H](OC(C)(C)C)C(=O)O` [Example 49, (2S)-2-(tert-Butoxy)-2-[4-(4,4-dimethylpiperidin-1-yl)-2-methyl-5-(2-{8-oxa-3,5-diazatricyclo[7.4.0.0^2,7]trideca-1(9),2(7),3,5,10,12-hexaen-6-yl}-1,2,3,4-tetrahydroisoquinolin-6-yl)pyridin-3-yl]acetic Acid] as the compound, how does the EC50 read?
Its EC50 is 1 nM.

For `Cc1nc(C#N)c(-c2ccc3c(c2)CCN(c2ncnc4c2oc2ccccc24)C3)c(N2CCC(C)(C)CC2)c1[C@H](OC(C)(C)C)C(=O)O` [Example 50], which EC50 is on record?
The EC50 was 4 nM.

How did the EC50 turn out when `Cc1cc(F)ccc1CN1CCc2cc(-c3cnc(C)c([C@H](OC(C)(C)C)C(=O)O)c3N3CCC(C)(C)CC3)ccc2C1` [Example 51, (2S)-2-(tert-Butoxy)-2-[4-(4,4-dimethylpiperidin-1-yl)-5-{2-[(4-fluoro-2-methylphenyl)methyl]-1,2,3,4-tetrahydroisoquinolin-6-yl}-2-methylpyridin-3-yl]acetic Acid] was run?
The EC50 was 4 nM.

For `Cc1nc(C)c([C@H](OC(C)(C)C)C(=O)O)c(N2CCC(C)(C)CC2)c1-c1ccc2c(c1)CCN(Cc1ccccc1)C2` [Example 52, (2S)-2-[5-(2-Benzyl-1,2,3,4-tetrahydroisoquinolin-6-yl)-4-(4,4-dimethylpiperidin-1-yl)-2,6-dimethylpyridin-3-yl]-2-(tert-butoxy)acetic Acid], which EC50 is on record?
The EC50 was 3 nM.

`CCC(C)(C)O[C@H](C(=O)O)c1c(C)ncc(-c2ccc3c(c2)CCN(Cc2c(C)cccc2Cl)C3)c1N1CCC(C)(C)CC1` [Example 53, (2S)-2-(5-{2-[(2-Chloro-6-methylphenyl)methyl]-1,2,3,4-tetrahydroisoquinolin-6-yl}-4-(4,4-dimethylpiperidin-1-yl)-2-methylpyridin-3-yl)-2-[(2-methylbutan-2-yl)oxy]acetic Acid] was tested. Which EC50 did it give?
Its EC50 is 6 nM.

How did the EC50 turn out when `CCC(C)(C)O[C@H](C(=O)O)c1c(C)ncc(-c2ccc3c(c2)CCN(Cc2ccc(F)cc2C)C3)c1N1CCC(C)(C)CC1` [Example 54, (2S)-2-[4-(4,4-Dimethylpiperidin-1-yl)-5-{2-[(4-fluoro-2-methylphenyl)methyl]-1,2,3,4-tetrahydroisoquinolin-6-yl}-2-methylpyridin-3-yl]-2-[(2-methylbutan-2-yl)oxy]acetic Acid] was run?
Its EC50 is 12 nM.

`Cc1nc(C)c([C@H](OC(C)(C)C)C(=O)O)c(N2CCC(C)(C)CC2)c1-c1ccc2c(c1)CCN(c1cc(N3CCOCC3)cnn1)C2` [Example 55, (S)-2-(tert-Butoxy)-2-(4-(4,4-dimethylpiperidin-1-yl)-2,6-dimethyl-5-(2-(5-morpholinopyridazin-3-yl)-1,2,3,4-tetrahydroisoquinolin-6-yl)pyridin-3-yl)acetic Acid] was tested. Which EC50 did it give?
Its EC50 is 21 nM.

For `Cc1nc(N2CCOCC2)nc(N2CCc3cc(-c4c(C)nc(C)c([C@H](OC(C)(C)C)C(=O)O)c4N4CCC(C)(C)CC4)ccc3C2)n1` [Example 56, (S)-2-(tert-Butoxy)-2-(4-(4,4-dimethylpiperidin-1-yl)-2,6-dimethyl-5-(2-(4-methyl-6-morpholino-1,3,5-triazin-2-yl)-1,2,3,4-tetrahydroisoquinolin-6-yl)pyridin-3-yl)acetic Acid], which EC50 is on record?
Its EC50 is 1 nM.

How did the EC50 turn out when `Cc1nc(C)c([C@H](OC(C)(C)C)C(=O)O)c(N2CCC(C)(C)CC2)c1-c1ccc2c(c1)CCN(c1ccnc(N3CCOCC3)n1)C2` [Example 57, (S)-2-(tert-Butoxy)-2-(4-(4,4-dimethylpiperidin-1-yl)-2,6-dimethyl-5-(2-(2-morpholinopyrimidin-4-yl)-1,2,3,4-tetrahydroisoquinolin-6-yl)pyridin-3-yl)acetic Acid] was run?
Its EC50 is 0.5 nM.

`Cc1nc(C)c([C@H](OC(C)(C)C)C(=O)O)c(N2CCC(C)(C)CC2)c1-c1ccc2c(c1)CCN(c1nc(Cl)nc(N3CCOCC3)n1)C2` [Example 58, (S)-2-(tert-Butoxy)-2-(5-(2-(4-chloro-6-morpholino-1,3,5-triazin-2-yl)-1,2,3,4-tetrahydroisoquinolin-6-yl)-4-(4,4-dimethylpiperidin-1-yl)-2,6-dimethylpyridin-3-yl)acetic Acid] was tested. Which EC50 did it give?
Its EC50 is 8 nM.

Which EC50 does the source give for `CCOc1nc(N2CCOCC2)nc(N2CCc3cc(-c4c(C)nc(C)c([C@H](OC(C)(C)C)C(=O)O)c4N4CCC(C)(C)CC4)ccc3C2)n1` [Example 59, (S)-2-(tert-Butoxy)-2-(4-(4,4-dimethylpiperidin-1-yl)-5-(2-(4-ethoxy-6-morpholino-1,3,5-triazin-2-yl)-1,2,3,4-tetrahydroisoquinolin-6-yl)-2,6-dimethylpyridin-3-yl)acetic Acid] here?
The EC50 was 3 nM.

Which EC50 does the source give for `Cc1nc(C)c([C@H](OC(C)(C)C)C(=O)O)c(N2CCC(C)(C)CC2)c1-c1ccc2c(c1)CCN(c1ncnc(N3CCOCC3)n1)C2` [Example 60, (S)-2-(tert-Butoxy)-2-(4-(4,4-dimethylpiperidin-1-yl)-2,6-dimethyl-5-(2-(4-morpholino-1,3,5-triazin-2-yl)-1,2,3,4-tetrahydroisoquinolin-6-yl)pyridin-3-yl)acetic Acid] here?
Its EC50 is 0.6 nM.

How did the EC50 turn out when `Cc1nc(C)c([C@H](OC(C)(C)C)C(=O)O)c(N2CCC(C)(C)CC2)c1-c1ccc2c(c1)CCN(c1ncnc(N3CCC(O)CC3)n1)C2` [Example 61, (S)-2-(tert-Butoxy)-2-(4-(4,4-dimethylpiperidin-1-yl)-5-(2-(4-(4-hydroxypiperidin-1-yl)-1,3,5-triazin-2-yl)-1,2,3,4-tetrahydroisoquinolin-6-yl)-2,6-dimethylpyridin-3-yl)acetic Acid] was run?
The EC50 was 2 nM.

Which EC50 does the source give for `Cc1nc(C)c([C@H](OC(C)(C)C)C(=O)O)c(N2CCC(C)(C)CC2)c1-c1ccc2c(c1)CCN(c1ncnc(N3CCC(CO)CC3)n1)C2` [Example 62, (S)-2-(tert-Butoxy)-2-(4-(4,4-dimethylpiperidin-1-yl)-5-(2-(4-(4-(hydroxymethyl)piperidin-1-yl)-1,3,5-triazin-2-yl)-1,2,3,4-tetrahydroisoquinolin-6-yl)-2,6-dimethylpyridin-3-yl)acetic Acid] here?
Its EC50 is 3 nM.

For `Cc1nc(C)c([C@H](OC(C)(C)C)C(=O)O)c(N2CCC(C)(C)CC2)c1-c1ccc2c(c1)CCN(c1ncnc(N3CCC(CCO)CC3)n1)C2` [Example 63, (S)-2-(tert-Butoxy)-2-(4-(4,4-dimethylpiperidin-1-yl)-5-(2-(4-(4-(2-hydroxyethyl)piperidin-1-yl)-1,3,5-triazin-2-yl)-1,2,3,4-tetrahydroisoquinolin-6-yl)-2,6-dimethylpyridin-3-yl)acetic Acid], which EC50 is on record?
Its EC50 is 4 nM.

For `Cc1nc(N2CCOCC2)cc(N2CCc3cc(-c4c(C)nc(C)c([C@H](OC(C)(C)C)C(=O)O)c4N4CCC(C)(C)CC4)ccc3C2)n1` [Example 64, (S)-2-(tert-Butoxy)-2-(4-(4,4-dimethylpiperidin-1-yl)-2,6-dimethyl-5-(2-(2-methyl-6-morpholinopyrimidin-4-yl)-1,2,3,4-tetrahydroisoquinolin-6-yl)pyridin-3-yl)acetic Acid], which EC50 is on record?
Its EC50 is 8 nM.

`CCOc1cc(N2CCc3cc(-c4c(C)nc(C)c([C@H](OC(C)(C)C)C(=O)O)c4N4CCC(C)(C)CC4)ccc3C2)nc(C)n1` [Example 65, (S)-2-(tert-Butoxy)-2-(4-(4,4-dimethylpiperidin-1-yl)-5-(2-(6-ethoxy-2-methylpyrimidin-4-yl)-1,2,3,4-tetrahydroisoquinolin-6-yl)-2,6-dimethylpyridin-3-yl)acetic Acid] was tested. Which EC50 did it give?
The EC50 was 19 nM.

For `Cc1nc(C)c([C@H](OC(C)(C)C)C(=O)O)c(N2CCC(C)(C)CC2)c1-c1ccc2c(c1)CCN(c1cccc(N3CCOCC3)n1)C2` [Example 66, (S)-2-(tert-Butoxy)-2-(4-(4,4-dimethylpiperidin-1-yl)-2,6-dimethyl-5-(2-(6-morpholinopyridin-2-yl)-1,2,3,4-tetrahydroisoquinolin-6-yl)pyridin-3-yl)acetic Acid], which EC50 is on record?
The EC50 was 13 nM.

How did the EC50 turn out when `COc1c(N2CCOCC2)ncnc1N1CCc2cc(-c3c(C)nc(C)c([C@H](OC(C)(C)C)C(=O)O)c3N3CCC(C)(C)CC3)ccc2C1` [Example 67, (S)-2-(tert-Butoxy)-2-(4-(4,4-dimethylpiperidin-1-yl)-5-(2-(5-methoxy-6-morpholinopyrimidin-4-yl)-1,2,3,4-tetrahydroisoquinolin-6-yl)-2,6-dimethylpyridin-3-yl)acetic Acid] was run?
The EC50 was 2 nM.

How did the EC50 turn out when `Cc1nc(C)c([C@H](OC(C)(C)C)C(=O)O)c(N2CCC(C)(C)CC2)c1-c1ccc2c(c1)CCN(c1ncnc(N3C[C@@H](C)O[C@@H](C)C3)n1)C2` [Example 68, (S)-2-(tert-Butoxy)-2-(5-(2-(4-((2R,6S)-2,6-dimethylmorpholino)-1,3,5-triazin-2-yl)-1,2,3,4-tetrahydroisoquinolin-6-yl)-4-(4,4-dimethylpiperidin-1-yl)-2,6-dimethylpyridin-3-yl)acetic Acid] was run?
Its EC50 is 1 nM.

With `Cc1nc(C)c([C@H](OC(C)(C)C)C(=O)O)c(N2CCC(C)(C)CC2)c1-c1ccc2c(c1)CCN(c1nccc(N3CCN(CCO)CC3)n1)C2` [Example 69, (S)-2-(tert-Butoxy)-2-(4-(4,4-dimethylpiperidin-1-yl)-5-(2-(4-(4-(2-hydroxyethyl)piperazin-1-yl)pyrimidin-2-yl)-1,2,3,4-tetrahydroisoquinolin-6-yl)-2,6-dimethylpyridin-3-yl)acetic Acid] as the compound, how does the EC50 read?
The EC50 was 18 nM.

How did the EC50 turn out when `Cc1nc(C)c([C@H](OC(C)(C)C)C(=O)O)c(N2CCC(C)(C)CC2)c1-c1ccc2c(c1)CCN(c1nccc(N3CCC(C(C)(C)O)CC3)n1)C2` [Example 70, (S)-2-(tert-Butoxy)-2-(4-(4,4-dimethylpiperidin-1-yl)-5-(2-(4-(4-(2-hydroxypropan-2-yl)piperidin-1-yl)pyrimidin-2-yl)-1,2,3,4-tetrahydroisoquinolin-6-yl)-2,6-dimethylpyridin-3-yl)acetic Acid] was run?
The EC50 was 5 nM.

For `Cc1nc(C)c([C@H](OC(C)(C)C)C(=O)O)c(N2CCC(C)(C)CC2)c1-c1ccc2c(c1)CCN(c1ccnc(N3CCC(C(C)(C)O)CC3)n1)C2` [Example 71, (S)-2-(tert-Butoxy)-2-(4-(4,4-dimethylpiperidin-1-yl)-5-(2-(2-(4-(2-hydroxypropan-2-yl)piperidin-1-yl)pyrimidin-4-yl)-1,2,3,4-tetrahydroisoquinolin-6-yl)-2,6-dimethylpyridin-3-yl)acetic Acid], which EC50 is on record?
Its EC50 is 4 nM.
